A word on the IC50: it is the point on the concentration scale where inhibition reaches its midpoint.

This experiment relates to SK-MEL3. Briefly: Antiproliferative activity against human SK-MEL3 cells assessed as inhibition of cell growth incubated for 24 hrs by MTT assay. In kind it is functional, cell-based. The note with it: SK-MEL3, 24 h.

The structures appear in SMILES notation.

With `COc1cc(/C=C\C(=O)CC(=O)/C=C\c2ccc(OC(=O)O[C@@H]3O[C@@H]4O[C@@]5(C)CC[C@H]6[C@H](C)CC[C@@H]([C@H]3C)[C@@]46OO5)c(OC)c2)ccc1OC(=O)CCC(=O)O[C@@H]1O[C@@H]2O[C@@]3(C)CC[C@H]4[C@H](C)CC[C@@H]([C@H]1C)[C@@]24OO3`, the IC50 was 3000 nM.
